Patent publication US10844077B2, “Thiazolyl-containing compounds for treating proliferative diseases” (Dana-Farber Cancer Institute, Inc., priority 2014, dated 2020)
Where “and” joins values, the source holds several entries; their conditions need not be identical. Equal values may be shown once.

Tests used:
Experiment in all cases: KINATIV assay
Format in all cases: cell-based
Details in all cases: 1 μM, 90 minutes, BCWM.1 cells
ATR = ATR (Homo sapiens (Human), UniProt Q13535)
In short: (§1)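 Quantitation by ACTIVX of probe-bound kinases from cell lysates labeled directly with ATP-biotin; compounds run in duplicate, controls in duplicate or quadruplicate.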

CASK = CASK (Homo sapiens (Human), UniProt O14936)
In short: as §1

MLKL = MLKL (Homo sapiens (Human), UniProt Q8NB16)
In short: as §1

CK1g2 = CK1g2 (Homo sapiens (Human), UniProt P78368)
In short: as §1

SRPK1, SRPK2 = system: SRPK1, SRPK2
In short: as §1

CaMK2g = CaMK2g (Homo sapiens (Human), UniProt Q13555)
In short: as §1

RSK1 domain2 = RSK1 domain2 (Homo sapiens (Human), UniProt Q15418)
In short: as §1

NEK8 = NEK8 (Homo sapiens (Human), UniProt Q86SG6)
In short: as §1

CaMK1d = CaMK1d (Homo sapiens (Human), UniProt Q8IU85)
In short: as §1

JNK1, JNK2, JNK3 = system: JNK1, JNK2, JNK3
In short: as §1

Wnk1, Wnk2, Wnk3 = system: Wnk1, Wnk2, Wnk3
In short: as §1

ULK1 = ULK1 (Homo sapiens (Human), UniProt O75385)
In short: as §1

PKN1 = PKN1 (Homo sapiens (Human), UniProt Q16512)
In short: as §1

NEK9 = NEK9 (Homo sapiens (Human), UniProt Q8TD19)
In short: as §1

IKKe, TBK1 = system: IKKe, TBK1
In short: as §1

PYK2 = PYK2 (Homo sapiens (Human), UniProt Q14289)
In short: as §1

PHKg2 = PHKg2 (Homo sapiens (Human), UniProt P15735)
In short: as §1

IKKe = IKKe (Homo sapiens (Human), UniProt Q14164)
In short: as §1

CLK3 = CLK3 (Homo sapiens (Human), UniProt P49761)
In short: as §1

MAP2K7 = MAP2K7 (Homo sapiens (Human), UniProt O14733)
In short: as §1

PKD1, PKD2 = system: PKD1, PKD2
In short: as §1

MYO3A, MYO3B = system: MYO3A, MYO3B
In short: as §1

TYK2 domain2 = TYK2 domain2 (Homo sapiens (Human), UniProt P29597)
In short: as §1

PIK3C2B = PIK3C2B (Homo sapiens (Human), UniProt O00750)
In short: as §1

RSKL1 = RSKL1 (Homo sapiens (Human), UniProt Q96S38)
In short: as §1

Erk5 = Erk5 (Homo sapiens (Human), UniProt Q13164)
In short: as §1

MST4, YSK1 = system: MST4, YSK1
In short: as §1

NEK7 = NEK7 (Homo sapiens (Human), UniProt Q8TDX7)
In short: as §1

RSK4 domain1 = RSK4 domain1 (Homo sapiens (Human), UniProt Q9UK32)
In short: as §1

CaMK2d = CaMK2d (Homo sapiens (Human), UniProt Q13557)
In short: as §1

HPK1 = HPK1 (Homo sapiens (Human), UniProt Q92918)
In short: as §1

AMPKa1 = AMPKa1 (Homo sapiens (Human), UniProt Q13131)
In short: as §1

Erk1 = Erk1 (Homo sapiens (Human), UniProt P27361)
In short: as §1

RSK2 domain2 = RSK2 domain2 (Homo sapiens (Human), UniProt P51812)
In short: as §1

LATS2 = LATS2 (Homo sapiens (Human), UniProt Q9NRM7)
In short: as §1

MARK1, MARK2 = system: MARK1, MARK2
In short: as §1

CaMK4 = CaMK4 (Homo sapiens (Human), UniProt Q16566)
In short: as §1

CK2a2 = CK2a2 (Homo sapiens (Human), UniProt P19784)
In short: as §1

p38d, p38g = system: p38d, p38g
In short: as §1

FES = FES (Homo sapiens (Human), UniProt P07332)
In short: as §1

[1] = system: CaMK2a, CaMK2b, CaMK2d, CaMK2g
In short: as §1

PYK2, sequence (Q14289 whole entry): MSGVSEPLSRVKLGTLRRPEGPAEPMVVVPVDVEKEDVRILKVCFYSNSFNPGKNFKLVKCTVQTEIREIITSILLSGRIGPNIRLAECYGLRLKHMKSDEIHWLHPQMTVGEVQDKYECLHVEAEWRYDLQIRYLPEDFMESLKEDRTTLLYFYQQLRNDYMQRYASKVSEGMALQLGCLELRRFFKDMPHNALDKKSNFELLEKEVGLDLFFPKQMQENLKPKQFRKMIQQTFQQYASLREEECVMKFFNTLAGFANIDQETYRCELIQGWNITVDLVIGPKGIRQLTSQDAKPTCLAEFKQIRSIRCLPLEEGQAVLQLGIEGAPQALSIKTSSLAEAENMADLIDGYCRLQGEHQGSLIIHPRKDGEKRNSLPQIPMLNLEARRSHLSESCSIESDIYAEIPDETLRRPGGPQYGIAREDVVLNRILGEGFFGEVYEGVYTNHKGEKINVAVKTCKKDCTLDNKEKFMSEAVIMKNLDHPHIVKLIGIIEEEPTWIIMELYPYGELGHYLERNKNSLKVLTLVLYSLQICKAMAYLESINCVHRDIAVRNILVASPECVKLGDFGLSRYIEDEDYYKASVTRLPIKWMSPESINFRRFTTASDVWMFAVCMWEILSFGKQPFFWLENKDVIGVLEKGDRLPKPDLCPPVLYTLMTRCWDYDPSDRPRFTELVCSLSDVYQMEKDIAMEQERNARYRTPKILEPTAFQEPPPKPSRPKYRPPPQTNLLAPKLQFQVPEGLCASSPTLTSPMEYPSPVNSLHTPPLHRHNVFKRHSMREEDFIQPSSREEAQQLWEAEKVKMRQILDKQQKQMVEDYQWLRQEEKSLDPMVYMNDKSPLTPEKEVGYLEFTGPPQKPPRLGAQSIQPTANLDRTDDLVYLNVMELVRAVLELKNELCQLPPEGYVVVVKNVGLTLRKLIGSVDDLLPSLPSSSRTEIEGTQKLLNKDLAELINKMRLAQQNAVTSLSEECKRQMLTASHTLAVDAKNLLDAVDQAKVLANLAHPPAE
HPK1, sequence (Q92918 whole entry): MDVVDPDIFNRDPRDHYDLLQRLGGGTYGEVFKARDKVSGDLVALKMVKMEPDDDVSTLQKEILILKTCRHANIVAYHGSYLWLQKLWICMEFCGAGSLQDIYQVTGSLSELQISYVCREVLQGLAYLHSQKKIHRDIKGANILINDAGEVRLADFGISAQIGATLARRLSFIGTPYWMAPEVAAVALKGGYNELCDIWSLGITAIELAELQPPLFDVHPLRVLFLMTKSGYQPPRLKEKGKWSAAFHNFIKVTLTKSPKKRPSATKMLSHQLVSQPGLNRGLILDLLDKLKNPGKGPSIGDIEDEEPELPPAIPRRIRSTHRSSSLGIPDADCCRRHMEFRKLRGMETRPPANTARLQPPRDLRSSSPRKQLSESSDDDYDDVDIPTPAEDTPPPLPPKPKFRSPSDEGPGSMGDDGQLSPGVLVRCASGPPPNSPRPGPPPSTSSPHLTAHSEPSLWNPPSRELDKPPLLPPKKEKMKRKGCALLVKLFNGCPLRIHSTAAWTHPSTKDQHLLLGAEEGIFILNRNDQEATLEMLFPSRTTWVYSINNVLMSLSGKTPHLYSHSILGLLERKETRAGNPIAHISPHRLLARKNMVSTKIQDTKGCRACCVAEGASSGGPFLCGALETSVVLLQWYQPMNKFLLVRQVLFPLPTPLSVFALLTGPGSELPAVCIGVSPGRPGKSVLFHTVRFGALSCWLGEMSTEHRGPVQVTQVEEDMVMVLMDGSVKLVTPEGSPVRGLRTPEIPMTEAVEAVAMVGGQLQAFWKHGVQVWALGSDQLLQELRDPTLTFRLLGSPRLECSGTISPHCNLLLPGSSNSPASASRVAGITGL
NEK9, sequence (Q8TD19 whole entry): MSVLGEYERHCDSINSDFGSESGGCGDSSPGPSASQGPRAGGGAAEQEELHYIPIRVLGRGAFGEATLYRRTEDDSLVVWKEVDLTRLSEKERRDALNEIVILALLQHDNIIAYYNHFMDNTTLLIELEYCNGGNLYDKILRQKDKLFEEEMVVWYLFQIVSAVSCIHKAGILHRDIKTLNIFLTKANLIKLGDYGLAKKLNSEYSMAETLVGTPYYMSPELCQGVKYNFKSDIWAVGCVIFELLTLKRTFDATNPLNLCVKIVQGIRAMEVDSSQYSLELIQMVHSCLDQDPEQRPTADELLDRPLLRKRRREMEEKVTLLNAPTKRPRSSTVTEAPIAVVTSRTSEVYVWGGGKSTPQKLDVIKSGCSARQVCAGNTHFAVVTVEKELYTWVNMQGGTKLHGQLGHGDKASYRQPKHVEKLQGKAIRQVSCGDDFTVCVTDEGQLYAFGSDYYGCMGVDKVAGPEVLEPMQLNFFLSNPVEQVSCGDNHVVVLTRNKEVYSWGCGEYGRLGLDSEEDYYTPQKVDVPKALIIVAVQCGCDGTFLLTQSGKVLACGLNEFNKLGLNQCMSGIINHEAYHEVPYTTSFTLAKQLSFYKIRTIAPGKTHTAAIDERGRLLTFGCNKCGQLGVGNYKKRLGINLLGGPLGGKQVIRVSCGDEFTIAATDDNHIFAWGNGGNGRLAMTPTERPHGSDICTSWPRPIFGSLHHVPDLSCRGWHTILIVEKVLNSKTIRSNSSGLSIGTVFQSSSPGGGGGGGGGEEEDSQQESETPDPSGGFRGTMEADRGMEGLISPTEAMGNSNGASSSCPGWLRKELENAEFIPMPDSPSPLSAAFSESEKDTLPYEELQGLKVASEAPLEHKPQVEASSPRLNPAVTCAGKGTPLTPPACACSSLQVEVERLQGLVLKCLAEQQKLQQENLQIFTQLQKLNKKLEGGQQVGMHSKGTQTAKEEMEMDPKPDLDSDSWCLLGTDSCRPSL
CaMK1d, sequence (Q8IU85 whole entry): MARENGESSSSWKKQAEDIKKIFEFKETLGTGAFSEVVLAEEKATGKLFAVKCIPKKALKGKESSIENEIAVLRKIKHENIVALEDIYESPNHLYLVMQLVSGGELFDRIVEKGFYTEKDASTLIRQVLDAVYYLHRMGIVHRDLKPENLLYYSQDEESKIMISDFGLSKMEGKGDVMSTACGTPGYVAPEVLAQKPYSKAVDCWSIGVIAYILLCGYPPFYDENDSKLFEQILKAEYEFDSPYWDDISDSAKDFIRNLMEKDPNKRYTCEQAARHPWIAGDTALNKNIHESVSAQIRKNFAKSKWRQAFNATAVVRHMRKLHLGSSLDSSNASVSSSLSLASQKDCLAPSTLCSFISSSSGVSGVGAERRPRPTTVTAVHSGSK
CaMK2g, sequence (Q13555 whole entry): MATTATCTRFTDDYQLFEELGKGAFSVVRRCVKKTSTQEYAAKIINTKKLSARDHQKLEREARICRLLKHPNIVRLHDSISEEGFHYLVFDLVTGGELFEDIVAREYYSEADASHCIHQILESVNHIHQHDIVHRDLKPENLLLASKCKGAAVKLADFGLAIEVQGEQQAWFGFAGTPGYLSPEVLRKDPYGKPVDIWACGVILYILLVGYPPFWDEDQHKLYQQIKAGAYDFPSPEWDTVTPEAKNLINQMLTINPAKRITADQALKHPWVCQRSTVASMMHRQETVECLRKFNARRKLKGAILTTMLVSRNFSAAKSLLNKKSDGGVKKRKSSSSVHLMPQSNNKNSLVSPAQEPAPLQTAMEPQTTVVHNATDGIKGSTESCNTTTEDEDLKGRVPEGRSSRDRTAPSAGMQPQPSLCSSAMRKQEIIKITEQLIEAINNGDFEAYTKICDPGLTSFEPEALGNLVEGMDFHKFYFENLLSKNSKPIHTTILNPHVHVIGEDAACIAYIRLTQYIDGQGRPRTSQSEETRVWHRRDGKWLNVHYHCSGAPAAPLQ
CaMK2d, sequence (Q13557 whole entry): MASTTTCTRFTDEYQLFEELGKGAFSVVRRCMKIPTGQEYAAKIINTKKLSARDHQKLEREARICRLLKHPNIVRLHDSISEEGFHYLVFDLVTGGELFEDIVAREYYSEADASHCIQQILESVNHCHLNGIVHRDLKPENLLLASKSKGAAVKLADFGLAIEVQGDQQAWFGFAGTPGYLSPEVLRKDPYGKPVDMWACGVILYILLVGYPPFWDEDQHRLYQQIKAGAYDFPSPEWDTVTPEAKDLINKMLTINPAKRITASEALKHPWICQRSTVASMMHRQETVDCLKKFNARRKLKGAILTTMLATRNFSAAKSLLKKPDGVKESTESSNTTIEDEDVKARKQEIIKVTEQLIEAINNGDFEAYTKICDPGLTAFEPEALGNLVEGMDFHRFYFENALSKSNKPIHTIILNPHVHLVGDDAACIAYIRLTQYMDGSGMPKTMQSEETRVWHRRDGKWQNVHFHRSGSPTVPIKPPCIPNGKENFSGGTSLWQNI
CK2a2, sequence (P19784 whole entry): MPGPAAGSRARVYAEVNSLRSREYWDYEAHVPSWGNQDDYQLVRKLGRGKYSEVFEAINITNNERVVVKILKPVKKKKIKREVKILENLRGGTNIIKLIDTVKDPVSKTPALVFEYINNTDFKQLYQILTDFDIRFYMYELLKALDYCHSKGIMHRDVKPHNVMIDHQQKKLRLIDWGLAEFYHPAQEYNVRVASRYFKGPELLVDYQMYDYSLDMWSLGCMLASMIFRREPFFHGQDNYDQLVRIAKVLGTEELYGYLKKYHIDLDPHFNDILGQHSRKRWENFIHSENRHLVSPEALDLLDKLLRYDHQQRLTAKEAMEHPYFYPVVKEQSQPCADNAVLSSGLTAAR
NEK7, sequence (Q8TDX7 whole entry): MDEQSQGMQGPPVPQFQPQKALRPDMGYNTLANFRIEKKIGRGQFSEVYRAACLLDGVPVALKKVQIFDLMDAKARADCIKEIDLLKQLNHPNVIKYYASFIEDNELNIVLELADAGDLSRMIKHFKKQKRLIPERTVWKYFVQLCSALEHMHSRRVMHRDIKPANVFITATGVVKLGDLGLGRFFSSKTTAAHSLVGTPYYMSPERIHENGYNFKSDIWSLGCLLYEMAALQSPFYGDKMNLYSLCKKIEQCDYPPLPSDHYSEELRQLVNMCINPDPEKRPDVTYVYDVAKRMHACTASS

C=CC(=O)N1CCC(CNc2nccc(Nc3ncc(C(=O)Nc4c(C)cccc4C)s3)n2)C1 (racemic) [Example I-8]
% change of MS signal compared to control sample (ATR): −24.9% | % change of MS signal compared to control sample (CASK): 43.0% | % change of MS signal compared to control sample (MLKL): −17.5% | % change of MS signal compared to control sample (CK1g2): −6.1% | % change of MS signal compared to control sample (SRPK1, SRPK2): 33.2% | % change of MS signal compared to control sample (CaMK2g): −9.4% | % change of MS signal compared to control sample (RSK1 domain2): 0.5% | % change of MS signal compared to control sample (NEK8): 13.1% | % change of MS signal compared to control sample (CaMK1d): −14.1% and −8.7% | % change of MS signal compared to control sample (JNK1, JNK2, JNK3): −9.5% | % change of MS signal compared to control sample (Wnk1, Wnk2, Wnk3): 1.7% | % change of MS signal compared to control sample (ULK1): 16.1% | % change of MS signal compared to control sample (PKN1): 13.7% | % change of MS signal compared to control sample (NEK9): −1.3% and −0.3% | % change of MS signal compared to control sample (IKKe, TBK1): 5.5% | % change of MS signal compared to control sample (PYK2): 20.3% and 25.5% | % change of MS signal compared to control sample (PHKg2): 6.4% | % change of MS signal compared to control sample (IKKe): −5.9% | % change of MS signal compared to control sample (CLK3): −14.9% | % change of MS signal compared to control sample (MAP2K7): −7.5% | % change of MS signal compared to control sample (PKD1, PKD2): −15.3% | % change of MS signal compared to control sample (MYO3A, MYO3B): 23.1% | % change of MS signal compared to control sample (TYK2 domain2): −44.6% | % change of MS signal compared to control sample (PIK3C2B): 12.5% | % change of MS signal compared to control sample (RSKL1): 35.0% | % change of MS signal compared to control sample (Erk5): −11.4% | % change of MS signal compared to control sample (MST4, YSK1): 19.3% | % change of MS signal compared to control sample (NEK7): −1.0% | % change of MS signal compared to control sample (RSK4 domain1): −8.2% | % change of MS signal compared to control sample (CaMK2d): −22.3% | % change of MS signal compared to control sample (HPK1): 32.8% and 24.6% | % change of MS signal compared to control sample (AMPKa1): −0.6% | % change of MS signal compared to control sample (Erk1): −19.7% | % change of MS signal compared to control sample (RSK2 domain2): −6.8% | % change of MS signal compared to control sample (LATS2): 10.6% | % change of MS signal compared to control sample (MARK1, MARK2): 14.6% | % change of MS signal compared to control sample (CaMK4): −26.3% | % change of MS signal compared to control sample (CK2a2): 27.5% | % change of MS signal compared to control sample (p38d, p38g): 3.3% | % change of MS signal compared to control sample (FES): −13.3% | % change of MS signal compared to control sample [1]: 10.4%

C=CC(=O)N1CC[C@@H](Nc2nccc(Nc3ncc(C(=O)Nc4c(C)cccc4C)s3)n2)C1 [Example I-4]
% change of MS signal compared to control sample (ATR): −66.1% | % change of MS signal compared to control sample (CASK): 23.2% | % change of MS signal compared to control sample (MLKL): −9.4% | % change of MS signal compared to control sample (CK1g2): −4.5% | % change of MS signal compared to control sample (SRPK1, SRPK2): −14.7% | % change of MS signal compared to control sample (CaMK2g): −19.8% | % change of MS signal compared to control sample (RSK1 domain2): 12.5% | % change of MS signal compared to control sample (NEK8): 14.6% | % change of MS signal compared to control sample (CaMK1d): −12.5% and −4.0% | % change of MS signal compared to control sample (JNK1, JNK2, JNK3): 6.3% | % change of MS signal compared to control sample (Wnk1, Wnk2, Wnk3): 17.5% | % change of MS signal compared to control sample (ULK1): 16.2% | % change of MS signal compared to control sample (PKN1): 17.4% | % change of MS signal compared to control sample (NEK9): −0.1% and 4.4% | % change of MS signal compared to control sample (IKKe, TBK1): −38.7% | % change of MS signal compared to control sample (PYK2): 27.3% | % change of MS signal compared to control sample (PHKg2): −15.6% | % change of MS signal compared to control sample (IKKe): 2.2% | % change of MS signal compared to control sample (CLK3): −1.3% | % change of MS signal compared to control sample (MAP2K7): −10.1% | % change of MS signal compared to control sample (PKD1, PKD2): −4.7% | % change of MS signal compared to control sample (MYO3A, MYO3B): 15.9% | % change of MS signal compared to control sample (TYK2 domain2): −3.8% | % change of MS signal compared to control sample (PIK3C2B): −5.8% | % change of MS signal compared to control sample (RSKL1): 10.7% | % change of MS signal compared to control sample (Erk5): −9.0% | % change of MS signal compared to control sample (MST4, YSK1): 20.5% | % change of MS signal compared to control sample (NEK7): −7.7% | % change of MS signal compared to control sample (RSK4 domain1): 3.5% | % change of MS signal compared to control sample (CaMK2d): −8.5% | % change of MS signal compared to control sample (HPK1): 26.6% | % change of MS signal compared to control sample (AMPKa1): 10.1% | % change of MS signal compared to control sample (Erk1): −10.9% | % change of MS signal compared to control sample (RSK2 domain2): 13.8% | % change of MS signal compared to control sample (LATS2): −9.2% | % change of MS signal compared to control sample (MARK1, MARK2): 17.1% | % change of MS signal compared to control sample (CaMK4): −7.1% | % change of MS signal compared to control sample (CK2a2): −3.6% | % change of MS signal compared to control sample (p38d, p38g): −2.7% | % change of MS signal compared to control sample (FES): −15.6% | % change of MS signal compared to control sample [1]: 10.0%
